Test results: ChEMBL document CHEMBL1155972, “From natural products to achiral drug prototypes: potent thrombin inhibitors based on P2/P3 dihydropyrid-2-one core motifs” (Bioorg Med Chem Lett, 2009)

Experiments:
[1] = target: Prothrombin (Homo sapiens, UniProt P00734); experiment: Inhibition of human thrombin
[2] = Inhibition of bovine trypsin; set-up: species or system Bos taurus
[3] = Dissociation constant, pKa of the compound; assay type: physicochemical

IC50 [1] [nM]	IC50 [2] [nM]	pKa [3]	SMILES
42	766		CC1=C(CC(=O)NCc2ccc(C(=N)N)cc2)C(=O)N(NS(=O)(=O)c2ccccc2)CC1
11	860	8.8	COc1cccc(S(=O)(=O)NN2CCC(C)=C(CC(=O)NCc3ccc(C(=N)N)cc3)C2=O)c1
17100	5.8		Cc1ccn(NS(=O)(=O)c2cccc3ccccc23)c(=O)c1CC(=O)NCc1ccc(C(=N)N)cc1
10	1250		CC1=C(CC(=O)NCc2ccc(C(=N)N)cc2)C(=O)N(NS(=O)(=O)c2cc(Cl)ccc2Cl)CC1
3.3			CC[C@@H](C)[C@@H](NC(=O)[C@H](O)Cc1ccccc1)C(=O)N1[C@H](C(=O)NCc2ccc(C(=N)N)cc2)C[C@@H]2CCCC[C@@H]21
	15600		COc1cccc(S(=O)(=O)Nn2ccc(C)c(CC(=O)NCc3ccc(C(=N)N)cc3)c2=O)c1
	5770	5.9	Cc1ccn(NS(=O)(=O)c2ccccc2)c(=O)c1CC(=O)NCc1ccc(C(=N)N)cc1
	7130		Cc1ccc(C)c(S(=O)(=O)Nn2ccc(C)c(CC(=O)NCc3ccc(C(=N)N)cc3)c2=O)c1
3960	14900		Cc1ccn(NS(=O)(=O)Cc2ccccc2)c(=O)c1CC(=O)NCc1ccc(C(=N)N)cc1
3.4			N=C(N)c1ccc(CNC(=O)[C@@H]2C[C@@H]3CCCC[C@@H]3N2C(=O)[C@H](NC(=O)[C@H](O)Cc2ccccc2)C(C2CCCCC2)C2CCCCC2)cc1
44	117		COc1cc(C)ccc1S(=O)(=O)NN1CCC(C)=C(CC(=O)NCc2ccc(C(=N)N)cc2)C1=O
1.6			CC(C)[C@@H](Cl)[C@@H](NC(=O)[C@H](O)Cc1ccccc1)C(=O)N1[C@H](C(=O)NCc2ccc(C(=N)N)cc2)C[C@@H]2CCCC[C@@H]21
106	683		CC1=C(CC(=O)NCc2ccc(C(=N)N)cc2)C(=O)N(NS(=O)(=O)c2ccc(Cl)cc2F)CC1
6	374	8.7	CC1=C(CC(=O)NCc2ccc(C(=N)N)cc2)C(=O)N(NS(=O)(=O)c2cc(C)ccc2C)CC1
	2020	6.7	COc1cc(C)ccc1S(=O)(=O)Nn1ccc(C)c(CC(=O)NCc2ccc(C(=N)N)cc2)c1=O
915	8.2		CC1=C(CC(=O)NCc2ccc(C(=N)N)cc2)C(=O)N(NS(=O)(=O)c2cccc3ccccc23)CC1
5.8			CO[C@H](COS(=O)(=O)[O-])C(=O)N[C@@H](C(=O)N1[C@H](C(=O)NCCC2=CC[N+](=C(N)N)C2)C[C@@H]2C[C@H](O)[C@@H](O)C[C@@H]21)[C@H](Cl)C(C)C [CHLORODYSINOSIN A]
46			CO[C@H](COS(=O)(=O)[O-])C(=O)N[C@H](CC(C)C)C(=O)N1[C@H](C(=O)NCCC2=CC[N+](=C(N)N)C2)C[C@@H]2C[C@H](O)[C@@H](O)C[C@@H]21 [DYSINOSIN A]

SMILES	IC50 [1] [nM]	IC50 [2] [nM]	pKa [3]
CC1=C(CC(=O)NCc2ccc(C(=N)N)cc2)C(=O)N(NS(=O)(=O)c2c(C)cccc2Cl)CC1	3	286	
